In PubChem BioAssay (NCI):
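Tested at 5 concentrations; 48 h exposure; 96-well plates; endpoints linearly interpolated, else capped at highest concentration. Here, GI50 denotes the concentration required for 50% inhibition of growth. TGI is the concentration that stops growth completely.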

Experiments:
Test in all cases: growth of human tumour cells (NCI), 48 h
TK-10 renal = system: TK-10 renal
CCRF-CEM leukemia = system: CCRF-CEM leukemia
SK-MEL-28 melanoma = system: SK-MEL-28 melanoma
NCI-H522 lung = system: NCI-H522 lung
OVCAR-4 ovarian = system: OVCAR-4 ovarian
SN12C renal = system: SN12C renal
IGROV1 ovarian = system: IGROV1 ovarian
NCI-H460 lung = system: NCI-H460 lung

## O=C(N/C(=C\c1cccc([N+](=O)[O-])c1)c1nc2ccc([N+](=O)[O-])cc2[nH]1)c1ccccc1
TK-10 renal
  TGI: > 100 µM
CCRF-CEM leukemia
  TGI: 87.6 µM
SK-MEL-28 melanoma
  TGI: > 100 µM
NCI-H522 lung
  TGI: 52.9 µM
OVCAR-4 ovarian
  TGI: 66.1 µM
SN12C renal
  TGI: > 100 µM
IGROV1 ovarian
  TGI: 74.4 µM

## CCc1ccccc1NC(=O)C1=C(C)NC(C)=C(C(=O)Nc2ccccc2CC)C1c1ccc2c(c1)OCO2
TK-10 renal
  TGI: > 100 µM
CCRF-CEM leukemia
  TGI: 84.4 µM
NCI-H460 lung
  TGI: > 100 µM
SK-MEL-28 melanoma
  TGI: > 100 µM
NCI-H522 lung
  TGI: > 100 µM
OVCAR-4 ovarian
  TGI: 92 µM
SN12C renal
  TGI: > 100 µM
IGROV1 ovarian
  TGI: > 100 µM

## COc1cc(Nc2nc3ccccc3nc2-c2cccs2)cc(OC)c1OC
TK-10 renal
  TGI: > 100 µM
CCRF-CEM leukemia
  TGI: > 100 µM
NCI-H460 lung
  TGI: > 100 µM
SK-MEL-28 melanoma
  TGI: > 100 µM
SN12C renal
  TGI: > 100 µM

## C[C@@H]1OC(=O)N2CCCC(=C3SCCCS3)C12 (stereo partly drawn)
TK-10 renal
  TGI: > 100 µM
CCRF-CEM leukemia
  TGI: > 100 µM
NCI-H460 lung
  TGI: > 100 µM
SK-MEL-28 melanoma
  TGI: > 100 µM
NCI-H522 lung
  TGI: > 100 µM
OVCAR-4 ovarian
  TGI: > 100 µM
SN12C renal
  TGI: > 100 µM
IGROV1 ovarian
  TGI: > 100 µM

## CCN(CC)C(c1ccc(N(C)C)cc1)C(c1ccc(N(C)C)cc1)N(CC)CC (stereo not drawn)
TK-10 renal
  TGI: > 73 µM
CCRF-CEM leukemia
  TGI: > 73 µM
NCI-H460 lung
  TGI: > 73 µM
SK-MEL-28 melanoma
  TGI: > 73 µM
NCI-H522 lung
  TGI: > 7.3 µM
OVCAR-4 ovarian
  TGI: > 73 µM
SN12C renal
  TGI: > 73 µM
IGROV1 ovarian
  TGI: > 73 µM

## Nc1cccc(S(=O)(=O)NCC(=O)O)c1
TK-10 renal
  TGI: > 100 µM
CCRF-CEM leukemia
  TGI: > 100 µM
NCI-H460 lung
  TGI: > 100 µM
SK-MEL-28 melanoma
  TGI: > 100 µM
NCI-H522 lung
  TGI: > 100 µM
OVCAR-4 ovarian
  TGI: > 100 µM
SN12C renal
  TGI: > 100 µM
IGROV1 ovarian
  TGI: > 100 µM

## NC1=NC(c2ccccc2)CC(c2cc(Cl)ccc2O)=N1 (stereo not drawn)
TK-10 renal
  TGI: 40.5 µM
CCRF-CEM leukemia
  TGI: 51.8 µM
NCI-H460 lung
  TGI: 29.3 µM
SK-MEL-28 melanoma
  TGI: 33.5 µM
NCI-H522 lung
  TGI: 29 µM
OVCAR-4 ovarian
  TGI: 35.8 µM
SN12C renal
  TGI: 26.9 µM
IGROV1 ovarian
  TGI: 42.1 µM

## CC(C)(C)c1cc(CCC(=O)Nc2ccc(Cl)cc2)nc(NC#N)n1
TK-10 renal
  TGI: > 100 µM
CCRF-CEM leukemia
  TGI: > 100 µM
NCI-H460 lung
  TGI: > 100 µM
SK-MEL-28 melanoma
  TGI: > 100 µM
OVCAR-4 ovarian
  TGI: > 100 µM
IGROV1 ovarian
  TGI: > 100 µM

## O=C(CC1(O)C(=O)Nc2ccccc21)c1ccncc1 (stereo not drawn)
CCRF-CEM leukemia
  TGI: > 100 µM
NCI-H460 lung
  TGI: > 100 µM
SK-MEL-28 melanoma
  TGI: > 100 µM
NCI-H522 lung
  TGI: > 100 µM
OVCAR-4 ovarian
  TGI: > 100 µM
SN12C renal
  TGI: > 100 µM
IGROV1 ovarian
  TGI: > 100 µM

## COc1ccc2nc3c(C(=O)NCCN(C)C)cccc3nc2c1
TK-10 renal
  TGI: 34.3 µM
CCRF-CEM leukemia
  TGI: > 100 µM
NCI-H460 lung
  TGI: > 1 µM
SK-MEL-28 melanoma
  TGI: 26.1 µM
OVCAR-4 ovarian
  TGI: 29.6 µM
SN12C renal
  TGI: 22.5 µM
IGROV1 ovarian
  TGI: 93.5 µM

## COC1(OC)CC2OC1C1N=NN(C(=O)OC(C)(C)C)C21 (stereo not drawn)
CCRF-CEM leukemia
  TGI: > 100 µM
NCI-H460 lung
  TGI: > 100 µM
SK-MEL-28 melanoma
  TGI: > 100 µM
OVCAR-4 ovarian
  TGI: > 100 µM
SN12C renal
  TGI: > 100 µM
IGROV1 ovarian
  TGI: > 100 µM

## Cc1cc(N(CCC#N)CCC#N)ccc1/C=C1\N=C(c2cc([N+](=O)[O-])ccc2Cl)N(c2cccc(Cl)c2)C1=O
TK-10 renal
  TGI: > 100 µM
CCRF-CEM leukemia
  TGI: > 100 µM
NCI-H460 lung
  TGI: > 100 µM
SK-MEL-28 melanoma
  TGI: > 100 µM
NCI-H522 lung
  TGI: > 100 µM
OVCAR-4 ovarian
  TGI: > 100 µM
SN12C renal
  TGI: > 100 µM
IGROV1 ovarian
  TGI: > 100 µM

## O=C(CCc1cc(-c2ccccc2)nc(=S)[nH]1)N(Cc1ccccc1)Cc1ccccc1
TK-10 renal
  TGI: > 100 µM
CCRF-CEM leukemia
  TGI: > 100 µM
NCI-H460 lung
  TGI: > 100 µM
NCI-H522 lung
  TGI: > 100 µM
OVCAR-4 ovarian
  TGI: > 100 µM
SN12C renal
  TGI: > 100 µM
IGROV1 ovarian
  TGI: > 100 µM

## C=C(C[C@](O)(C(=O)/C=C/c1ccc(Cl)cc1)C(=O)OC)c1ccccc1
TK-10 renal
  GI50: 2.33 µM
  TGI: 6.21 µM
CCRF-CEM leukemia
  GI50: 2.86 µM
  TGI: 13 µM
NCI-H460 lung
  GI50: 2.44 µM
  TGI: 6.31 µM
SK-MEL-28 melanoma
  GI50: 2.04 µM
  TGI: 4.98 µM
NCI-H522 lung
  GI50: 2.25 µM
  TGI: 6.95 µM
OVCAR-4 ovarian
  GI50: 3.07 µM
  TGI: 15.6 µM
SN12C renal
  GI50: 2.41 µM
  TGI: 6.1 µM

## O=[N+]([O-])c1ccc(C=NC2CCCCC2)cc1
TK-10 renal
  TGI: > 100 µM
CCRF-CEM leukemia
  TGI: > 100 µM
NCI-H460 lung
  TGI: > 100 µM
SK-MEL-28 melanoma
  TGI: > 100 µM
OVCAR-4 ovarian
  TGI: > 100 µM
SN12C renal
  TGI: > 100 µM
IGROV1 ovarian
  TGI: > 100 µM

## NC12CC3CC(C1)CC(C(=O)O)(C3)C2
TK-10 renal
  TGI: > 100 µM
CCRF-CEM leukemia
  TGI: > 100 µM
NCI-H460 lung
  TGI: > 100 µM
SK-MEL-28 melanoma
  TGI: > 100 µM
NCI-H522 lung
  TGI: > 100 µM
OVCAR-4 ovarian
  TGI: > 100 µM
SN12C renal
  TGI: > 100 µM
IGROV1 ovarian
  TGI: > 100 µM

## O=C(O)CCSC(=O)Nc1ccc([N+](=O)[O-])cc1
TK-10 renal
  TGI: > 100 µM
CCRF-CEM leukemia
  TGI: > 100 µM
NCI-H460 lung
  TGI: > 100 µM
SK-MEL-28 melanoma
  TGI: > 100 µM
OVCAR-4 ovarian
  TGI: > 100 µM
SN12C renal
  TGI: > 100 µM
IGROV1 ovarian
  TGI: > 100 µM

## O=C1c2ccccc2C(=O)N1CCc1ncc[nH]1
TK-10 renal
  TGI: > 100 µM
CCRF-CEM leukemia
  TGI: > 100 µM
NCI-H460 lung
  TGI: > 100 µM
SK-MEL-28 melanoma
  TGI: > 100 µM
NCI-H522 lung
  TGI: > 100 µM
SN12C renal
  TGI: > 100 µM
IGROV1 ovarian
  TGI: > 100 µM

## CC(=O)OCC1OC(NC(=S)N/N=C2\CC(c3ccccc3)Oc3ccccc32)C(OC(C)=O)C(OC(C)=O)C1OC(C)=O (stereo not drawn)
TK-10 renal
  TGI: > 100 µM
CCRF-CEM leukemia
  TGI: > 100 µM
NCI-H460 lung
  TGI: > 100 µM
NCI-H522 lung
  TGI: > 100 µM
OVCAR-4 ovarian
  TGI: > 100 µM
SN12C renal
  TGI: > 100 µM
IGROV1 ovarian
  TGI: > 100 µM

## CC(SC(=S)N1CCOCC1)c1cc2oc(=O)n(C)c2cc1Cl (stereo not drawn)
TK-10 renal
  TGI: > 100 µM
CCRF-CEM leukemia
  TGI: > 100 µM
NCI-H460 lung
  TGI: > 100 µM
SK-MEL-28 melanoma
  TGI: > 100 µM
OVCAR-4 ovarian
  TGI: > 100 µM
SN12C renal
  TGI: > 100 µM
IGROV1 ovarian
  TGI: > 10 µM

## CCCC1N2CCCCC2[C@@H]2c3[nH]c4ccccc4c3CCN12 (stereo partly drawn)
CCRF-CEM leukemia
  TGI: > 100 µM
NCI-H460 lung
  TGI: > 100 µM
SK-MEL-28 melanoma
  TGI: > 100 µM
OVCAR-4 ovarian
  TGI: > 100 µM
SN12C renal
  TGI: > 100 µM
IGROV1 ovarian
  TGI: > 100 µM

## O=C(CC1(O)C(=O)Nc2c(Cl)ccc(Cl)c21)c1ccc(F)cc1 (stereo not drawn)
TK-10 renal
  TGI: > 100 µM
CCRF-CEM leukemia
  TGI: > 100 µM
NCI-H460 lung
  TGI: > 100 µM
SK-MEL-28 melanoma
  TGI: > 100 µM
NCI-H522 lung
  TGI: > 100 µM
OVCAR-4 ovarian
  TGI: 97.9 µM
SN12C renal
  TGI: > 100 µM
